This note sets out measurements from ChEMBL document CHEMBL2413045, “Synthesis, self-aggregation and biological properties of alkylphosphocholine and alkylphosphohomocholine derivatives of cetyltrimethylammonium bromide, cetylpyridinium bromide, benzalkonium bromide (C16) and benzethonium chloride” (Eur J Med Chem, 2013).

The subject of assay [1] is Acanthamoeba quina. The experiment in a line: Amoebicidal activity against Acanthamoeba quina clinical isolate AcaVNAK03 assessed as minimum trophocidal concentration after 48 hrs by trypan blue exclusion assay. Type of assay: functional. The following applies: clinical isolate AcaVNAK03, 48 h.
For assay [2], the system named is Acanthamoeba lugdunensis. The experiment in a line: Amoebicidal activity against Acanthamoeba lugdunensis clinical isolate AcaVNAK02 assessed as minimum trophocidal concentration after 48 hrs by trypan blue exclusion assay. In kind it is functional. As to conditions: clinical isolate AcaVNAK02, 48 h.
The subject of assay [3] is Candida albicans. In words: microbe, parasite or virus in culture. Type of assay: functional. As to conditions: ATCC 60193, 48 h.
Description: (§1) Antimycotic activity against Candida albicans ATCC 60193 after 48 hrs by NCCLS M-27 microdilution assay
A further assay deals with HUVEC. In words: Cytotoxicity against HUVEC after 72 hrs by MTT assay. Type of assay: ADME, cell-based. The following applies: Homo sapiens.
A further assay has as its system MDA-MB-231. In words: Cytotoxicity against human MDA-MB-231 cells after 72 hrs by MTT assay. The following applies: MDA-MB-231, 72 h. Type of assay: functional, cell-based.
The subject of assay [4] is MCF7. The experiment in a line: Cytotoxicity against human MCF7 cells after 72 hrs by MTT assay. In kind it is functional, cell-based. As to conditions: MCF7, 72 h.
Assay [5] concerns A549. In words: Cytotoxicity against human A549 cells after 72 hrs by MTT assay. Type of assay: functional, cell-based. As to conditions: A549, 72 h.
In a further assay the test system is CCRF-CEM. The experiment in a line: Cytotoxicity against human CCRF-CEM cells after 72 hrs by MTT assay. Type of assay: functional, cell-based.
The test system of another assay is HeLa. In words: Cytotoxicity against human HeLa cells after 72 hrs by MTT assay. In kind it is functional, cell-based.
The test system of assay [6] is Candida albicans. In words: Ratio of cetylpyridinium bromide MIC to compound MIC for Candida albicans ATCC 60193. In kind it is functional.
Assay [7] concerns A549. The experiment in a line: Selectivity index, ratio of IC50 for HUVEC to IC50 for human A549 cells.
In assay [8] the test system is Acanthamoeba quina. As to conditions: clinical isolate AcaVNAK03.
Assay [9] has as its system Acanthamoeba lugdunensis. The following applies: clinical isolate AcaVNAK02.
In assay [10] the test system is Candida albicans. As to conditions: ATCC 60193.
Description: as §1
Assay [11] deals with MCF7. In words: Selectivity index, ratio of IC50 for HUVEC to IC50 for human MCF7 cells.

≈ marks a conversion by molar mass, not a printed value.

For `CCCCCCCCCCCCCCCCOP(=O)([O-])OCC[N+](C)(C)Cc1ccccc1`, the MTC in the assay on Acanthamoeba quina [1] and in the assay on Acanthamoeba lugdunensis [2] was greater than 500 µM each time. For the same molecule, in the assay with Candida albicans [3], the MIC was 8.1 µM (≈ 3.92 µg/mL). In addition, the IC50 with HUVEC is greater than 100 µM; with MDA-MB-231, 44.3 µM; in the assay with MCF7 [4] it was 76 µM; in the assay with A549 [5], 73.2 µM; with CCRF-CEM, 13.8 µM; with HeLa it was 55.7 µM.
With `CCCCCCCCCCCCCCCC[N+](C)(C)Cc1ccccc1.[Br-]`, the Ratio in the assay with Candida albicans [6] was 2. Further, the MTC in the assay on Acanthamoeba quina [1] and in the assay on Acanthamoeba lugdunensis [2] was 15.6 µM in each case. Besides, the MIC in the assay on Candida albicans [3] was 4.5 µM. Besides, in the assay with A549 [7], the “Ratio IC50” value was greater than 10. The IC50 was found to be 7.5 µM in the assay on HUVEC; 3.5 µM in the assay on MDA-MB-231; 1 µM in the assay on MCF7 [4]; 0.63 µM in the assay with A549 [5]; 0.9 µM in the assay on CCRF-CEM; 2.8 µM in the assay on HeLa.
On to `CCCCCCCCCCCCCCCCOP(=O)([O-])OCC[N+](C)(C)C` [MILTEFOSINE], for which the MTC worked out at 125 µM in the assay with Acanthamoeba quina [1] and 250 µM in the assay with Acanthamoeba lugdunensis [2]. In the assay with Candida albicans [3], this molecule displayed an MIC of 2.2 µM (≈ 0.897 µg/mL). Moreover, the “Ratio IC50” value in the assay with A549 [7] is on record as greater than 10. Further, the IC50 is greater than 100 µM in the assay on HUVEC; 34.8 µM in the assay on MDA-MB-231; 18.9 µM in the assay with MCF7 [4]; 8.6 µM in the assay on A549 [5]; 20.7 µM in the assay with CCRF-CEM; 74.4 µM in the assay with HeLa.
As to `CCCCCCCCCCCCCCCCOP(=O)([O-])OCCC[N+](C)(C)Cc1ccccc1`, the MTC with Acanthamoeba quina [1] came to 250 µM; in the assay on Acanthamoeba lugdunensis [2], 125 µM. This molecule also gave an MIC in the assay with Candida albicans [3] of 7.9 µM (≈ 3.93 µg/mL). Moreover, the IC50 in the assay on HUVEC is greater than 100 µM; in the assay on MDA-MB-231, 43.7 µM; in the assay on MCF7 [4] it was 57.6 µM; in the assay with A549 [5] it was 57.6 µM; with CCRF-CEM, 62.2 µM; in the assay on HeLa, 62.1 µM.
Cetyltrimethylammonium bromide: the MIC against Acanthamoeba quina [8] was 15.6 µM; against Acanthamoeba lugdunensis [9], 15.6 µM; in the assay with Candida albicans [10], 22 µM.
Take `CCCCCCCCCCCCCCCCOP(=O)([O-])OCC[n+]1ccccc1`: the MTC with Acanthamoeba quina [1] and with Acanthamoeba lugdunensis [2] was 62.5 µM throughout. Besides, the MIC against Candida albicans [3] stood at 4 µM (≈ 1.71 µg/mL). The “Ratio IC50” value with MCF7 [11] is reported as greater than 10. Also, the IC50 in the assay with HUVEC was found to be 94 µM; in the assay on MDA-MB-231, 45.8 µM; in the assay with MCF7 [4], 8.1 µM; in the assay with A549 [5], 9.9 µM; in the assay on CCRF-CEM, 22.9 µM; with HeLa, 52.1 µM.
Consider `CCCCCCCCCCCCCCCCOP(=O)([O-])OCCC[n+]1ccccc1`, for which the MTC in the assay on Acanthamoeba quina [1] amounted to 15.6 µM; in the assay on Acanthamoeba lugdunensis [2] it was 250 µM. The same molecule had an MIC against Candida albicans [3] of 2.1 µM (≈ 0.927 µg/mL). The IC50 with HUVEC is greater than 100 µM; with MDA-MB-231 it was 59.9 µM; with MCF7 [4], 50.4 µM; with A549 [5], 61.6 µM; in the assay on CCRF-CEM, 34.6 µM; with HeLa it was 74.7 µM.
For `CC(C)(C)CC(C)(C)c1ccc(OCCOP(=O)([O-])OCCC[N+](C)(C)Cc2ccccc2)cc1`, the MTC with Acanthamoeba quina [1] was found to be 125 µM; in the assay with Acanthamoeba lugdunensis [2], 250 µM. The molecule further displayed an MIC in the assay with Candida albicans [3] greater than 100 µM. The IC50 in the assay with HUVEC, with MDA-MB-231, in the assay on MCF7 [4], in the assay with A549 [5], in the assay on CCRF-CEM and with HeLa was greater than 100 µM in each case.
`CCCCCCCCCCCCCCCCOP(=O)([O-])OCCC[N+](C)(C)C`: the MTC was determined as 62.5 µM in the assay with Acanthamoeba quina [1] and 125 µM with Acanthamoeba lugdunensis [2]. Moreover, in the assay on Candida albicans [3], the MIC amounted to 18.2 µM (≈ 7.67 µg/mL). Moreover, the IC50 in the assay on HUVEC is greater than 100 µM; with MDA-MB-231, 61.7 µM; with MCF7 [4] it was 45.2 µM; in the assay with A549 [5] it was 41.5 µM; in the assay with CCRF-CEM, 6.2 µM; in the assay with HeLa it was 84.4 µM.
Regarding `CC(C)(C)CC(C)(C)c1ccc(OCCOP(=O)([O-])OCC[N+](C)(C)Cc2ccccc2)cc1`, the MTC in the assay on Acanthamoeba quina [1] was found to be 500 µM; in the assay on Acanthamoeba lugdunensis [2] it was 250 µM. Also, the MIC against Candida albicans [3] is greater than 100 µM. Further, the IC50 in the assay with HUVEC, in the assay on MDA-MB-231, with MCF7 [4], with A549 [5], in the assay with CCRF-CEM and in the assay on HeLa was greater than 100 µM each time.
